Test results from ChEMBL document CHEMBL3046306, “Synthesis of new compounds derived from metronidazole and amino acids and their esters as antiparasitic agents” (Med Chem Res, 2012).

Legend:
Giardia intestinalis = test: Antiparasitic activity against Giardia intestinalis WB strain ATCC 30957 using trypan blue staining by hemocytometer; assay type: functional, organism-based; settings: Giardia duodenalis
Entamoeba histolytica = test: Antiparasitic activity against Entamoeba histolytica HK-9 strain ATCC 30015 using trypan blue staining by hemocytometer; assay type: functional, organism-based
[1] = Cytotoxicity against Chlorocebus aethiops (African green monkey) Vero cells assessed as concentration at which cell growth as in negative control after 48 hr by hemocytometer; assay type: cell-based; settings: chlorocebus sabaeus, read-out: Activity
[2] = Cytotoxicity against Homo sapiens (human) Hep2 cells assessed as concentration at which cell growth as in negative control after 48 hr by hemocytometer; assay type: cell-based; settings: HEp-2 cells, read-out: Activity

Row | SMILES | IC50 (Giardia intestinalis) [µM] | IC50 (Entamoeba histolytica) [µM] | MNTC at 48 h [1] [µM] | MNTC at 48 h [2] [µM]
1 | COC(=O)[C@H](Cc1ccc(O)cc1)NC(=O)Cn1c([N+](=O)[O-])cnc1C | 17.8 | 18.3 |  | 
2 | COC(=O)[C@H](CC(=O)O)NC(=O)Cn1c([N+](=O)[O-])cnc1C | 2.26 | 2.21 | 314 | 304
3 | CCOC(=O)C(CCCCNC(=O)Cn1c([N+](=O)[O-])cnc1C)NC(=O)Cn1c([N+](=O)[O-])cnc1C (configuration not stated) | 3.84 | 3.95 |  | 
4 | Cc1ncc([N+](=O)[O-])n1CCO [METRONIDAZOLE] | 5.17 | 4.4 | 903 | 869
5 | COC(=O)[C@H](Cc1cnc[nH]1)NC(=O)Cn1c([N+](=O)[O-])cnc1C | 8.93 | 8.91 |  | 
6 | CCOC(=O)[C@H](C)NC(=O)Cn1c([N+](=O)[O-])cnc1C | 2.18 | 2.1 | 72.2 | 69.7
7 | COC(=O)[C@H](Cc1c[nH]c2ccccc12)NC(=O)Cn1c([N+](=O)[O-])cnc1C | 16.6 | 8.29 |  | 
8 | Cc1ncc([N+](=O)[O-])n1CC(=O)N[C@@H](Cc1c[nH]c2ccccc12)C(=O)O | 18 | 17.2 |  | 
9 | Cc1ncc([N+](=O)[O-])n1CC(=O)N[C@@H](Cc1ccccc1)C(=O)O | 22.2 | 23.4 |  | 
10 | COC(=O)[C@@H]1CCCN1C(=O)Cn1c([N+](=O)[O-])cnc1C | 2.7 | 2.54 | 204 | 169
11 | Cc1ncc([N+](=O)[O-])n1CC(=O)N[C@@H](Cc1cnc[nH]1)C(=O)O | 17.2 | 16.2 |  | 
12 | COC(=O)[C@H](Cc1ccccc1)NC(=O)Cn1c([N+](=O)[O-])cnc1C | 44.4 | 22.1 |  | 
